TGI data for eight molecules are collected here from PubChem BioAssay (NCI).

Holding throughout (assay): inhibition of tumour cell growth, NCI panel, 48 h
Test [1] deals with T-47D breast.
Test [2] concerns COLO 205 colon.
Test [3] has as its system SK-MEL-5 melanoma.
In test [4] the test system is 786-0 renal.
The subject of test [5] is HCT-15 colon.
Test [6] relates to UACC-62 melanoma.
Test [7] relates to RPMI-8226 leukemia.
Test [8] has as its system M14 melanoma.
The test system of test [9] is SF-295 CNS.
For test [10], the system named is HCT-116 colon.
In test [11] the test system is HOP-92 NSCLC.
Test [12] relates to SN12C renal.
Test [13] concerns NCI-H23 lung.
Test [14] deals with MCF7 breast.
Test [15] relates to UO-31 renal.
Test [16] concerns EKVX NSCLC.
For test [17], the system named is KM12 colon.
Test [18] has as its system SNB-75 CNS.
The subject of test [19] is BT-549 breast.

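Dose response: 5 concentrations. Exposure: 48 h. Format: 96-well plates. Endpoint: linear interpolation; highest concentration if not reached. TGI denotes the concentration required for complete inhibition of growth.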 Where a SMILES comes first, the peptide text is derived from it. [ ]: non-standard residue; d: D form. The star is where a group is joined. Phe(4-NO2) = N[CH](Cc1ccc([N+](=O)[O-])cc1)C(=O)O; Hiv = CC(C)[C@H](O)C(=O)O; Boc = CC(C)(C)OC(=O)*

Consider `C#CC(O)/C=C/C(O)CCCC(O)CC#CC(O)C#CC(O)CCCC(O)/C=C/CCCCCC(=O)CCCCCCCCCCCCCC(O)C(O)C#CC(=O)O` (stereo not given), for which the TGI is 35 µM in [1]; more than 50 µM in test [2]; more than 50 µM in test [3]; more than 50 µM in [4]; more than 50 µM in test [5]; more than 50 µM in [6]. Moreover, the TGI in test [7] is more than 50 µM; in [8], more than 50 µM; in test [9], more than 50 µM; in test [10] it was more than 50 µM; in test [11] it was 27.1 µM; in test [12], more than 50 µM. Further, the TGI in [13] was more than 50 µM; in [14], 38.7 µM; in [15], more than 50 µM; in test [16] it was more than 50 µM; in test [17] it was more than 50 µM; in [18], 26 µM.
Consider `N#CC1CCCCC1NC1(C#N)CCCCC1` (stereo not given), for which the TGI in test [2], in test [3], in test [4], in [5], in [6] and in [7] was more than 100 µM in each case. Besides, the TGI in [8], in [9], in test [12], in test [13], in [15] and in test [16] was more than 100 µM each time. Besides, the TGI in test [17] and in [18] was more than 100 µM each time.
With `Cc1ccc(/C=C2\NC(=S)N(CN3CCCCC3)C2=O)cc1`, the TGI in [2] was 39.8 µM; in test [3] it was more than 100 µM; in test [4], more than 100 µM; in test [5], more than 100 µM; in test [6] it was more than 100 µM; in test [7], more than 100 µM. The TGI in test [8] was more than 100 µM; in [9], more than 100 µM; in [10], more than 100 µM; in test [11], 94.4 µM; in [12], more than 100 µM; in test [13], more than 100 µM. In addition, the TGI in test [14], in [15], in test [16], in test [17] and in [18] was more than 100 µM each time.
For the molecule `O=c1oc2c/c(=C\c3ccccn3)c(=O)c3cccc1c3-2`, the TGI in test [1], in test [2], in test [3], in [4], in test [5] and in test [6] was more than 100 µM each time. Also, the TGI in test [7], in test [8], in test [9], in test [10], in test [11] and in [12] was more than 100 µM each time. Moreover, the TGI in test [13], in [14], in test [16] and in test [17] was more than 100 µM in each case.
As for `CCn1c(O)c(C=Nc2ccccc2)s/c1=N/Nc1nc(-c2ccc(O)c(O)c2)cs1`, the TGI was more than 100 µM in test [2]; more than 100 µM in [3]; more than 100 µM in test [4]; more than 100 µM in test [5]; more than 100 µM in test [6]; 46.6 µM in test [7]. The TGI in test [8] was more than 100 µM; in test [9], 85.6 µM; in test [10] it was more than 100 µM; in [11] it was more than 100 µM; in test [12], more than 100 µM; in [13], more than 100 µM. The TGI in [14], in [15], in test [16], in [17] and in test [18] was more than 100 µM each time.
For the molecule `CC(C)[C@@H]1OC(=O)[C@@H](C)NC(=O)[C@@H]2CCCN2C1=O` (cyclo([Hiv]-Pro-[dA])), the TGI in test [1], in [2], in test [3], in [4], in test [5] and in test [6] was more than 100 µM throughout. The TGI in test [8], in [9], in test [10], in test [11], in test [12] and in [13] was more than 100 µM throughout. Also, the TGI in test [14], in test [16] and in test [17] was more than 100 µM each time.
Regarding `Cc1cccc(C)c1N1C(=O)C2c3[nH]c4ccccc4c3C3CCC(C(C)(C)C)CC3C2C1=O` (stereo not given), the TGI is 24 µM in test [2]; 28.6 µM in test [3]; 20.8 µM in test [4]; 24.2 µM in test [5]; 36.2 µM in test [6]; more than 100 µM in test [7]. The TGI was 38.2 µM in test [19]; 32 µM in [8]; 51.9 µM in [9]; 21.3 µM in test [10]; 23.9 µM in test [11]; 21.8 µM in test [12]. Further, the TGI in test [13] was 39.8 µM; in test [15], 26 µM; in test [16], 23.4 µM.
On to `COC(=O)CCC(NC(=O)OC(C)(C)C)C(=O)NC(Cc1ccc([N+](=O)[O-])cc1)C(=O)NC(CCC(=O)OC)C(=O)OC` (stereo not given) (Boc-Glu(OMe)-[Phe(4-NO2)]-Glu(OMe)-OMe; configuration not given here), for which the TGI in test [1], in [2], in test [3], in [4], in [5] and in [6] was more than 100 µM each time. Also, the TGI in test [7] is 67.3 µM; in [8] it was more than 100 µM; in test [9], more than 100 µM; in test [10], more than 100 µM; in test [11] it was more than 100 µM; in [12], more than 100 µM. The TGI is more than 100 µM in test [13]; more than 100 µM in test [14]; more than 100 µM in test [15]; more than 100 µM in test [16]; more than 100 µM in test [17]; 80.9 µM in test [18].
